Laboratory results reported in US8367659B2, “Oxazinyl isoflavonoid compounds, medicaments and use” (Marshall Edwards, Inc., priority 2007, dated 2013).
Marks after values point to notes of the source that are not given here.

Assays:
PMA-induced ear oedema = test: PMA-induced ear swelling in mice; type: in vivo, BALB/c mice; settings: 25 mg/kg i/p; 5 h after PMA
Experimental: (§1) Groups of 5-6 female BALB/c mice (ARC, WA, Australia), weighing 15-21 g were injected intraperitoneally (i/p) with test compound at 25 mg/kg delivered in polyethylene glycol (PEG) 400: phosphate buffered saline (PBS) 1:1 or ethanol: propanediol: PBS 4:9:7 either 30 min prior to or immediately before the inflammogen was applied to the ears. Mice were anaesthetised using isoflurane and baseline thickness of both ears was measured using a spring micrometer. Each mouse received a total of 20 μL of either AA in ethanol (50 mg/ml or 200 mg/ml) or PMA in either ethanol or acetone (0.2 mg/ml) applied to the inner and outer surfaces of each pinna (i.e. 0.5 mg or 2 mg AA or 2 μg PMA per ear). Mice were anaesthetised again to re-measure the ears at 1 h post-AA application and 5 h after PMA. The difference in ear swelling pre- and post-application of inflammogen for each ear was calculated, and the average for the two ears of each mouse taken. The difference in mean swelling of each test group compared to the group given vehicle alone was calculated using a general ANOVA using Dunnett's Multiple Comparison test when multiple compounds were tested in the one experiment or a two-tailed […] t-test when only one compound was tested (Prism 4, Graphpad Software). The data has been presented graphically as the mean percentage inhibition of oedema, calculated as: […]. Results

[1] = test system: TXA2 synthesis in RA stimulated U937 cells; test: TXA2 synthesis in RA-stimulated U937 cells; type: cell-based, human; settings: for TXA2 / TXA2 (pg): A23187; for TXA2 (pg): test compound 100 μM
Experimental: U937 cells were thawed and resuspended in RPM1 and 10% FCS at 2×10^5 cells per ml. The cells were incubated in 5% CO2 at 37° C. and expanded in growing culture to at least 6.4×10^7 total cells. The cells were then resuspended in fresh medium and cultured with […] (RA) at 2×10^5 cells per ml for a further 3 days (72 h). RA treated cells were washed 2× in serum-free RPM and resuspended in serum-free medium at 5×10^6 cells per ml. The cells were aliquotted into Teflon tubes at 1 ml per tube. Working stock solutions of each test compound were prepared at 0.1 mM, 1 mM and 10 mM as described above. For each test compound at each working dilution, 10 μl was added to 1 ml cells to achieve a final concentration of 0 (DMSO alone), 1, 10, and 100 μM for each test compound. Cells were incubated in triplicate with each concentration of test compound for 15 min at 37° C. After 15 min pre-incubation, each 1 ml tube of cells received 5 μl of a […] solution of the calcium ionophore A23187 (to achieve 0.5 μM A23187). Incubation at 37° C. was continued for a further 30 min. After incubation, supernatants were collected by centrifugation at 2000 rpm for 10 min and stored at −20° C. until required for assay.

HT29 = test: Anti-cancer activity, HT-29 colon adenocarcinoma cells (MTT); type: cell-based; settings: Homo sapiens, HT-29, 120 h, 5 days, read-out: IC50 μM, HT29 Colorectal
NCI-H460 = test: Anti-cancer activity, NCI-H460 large cell lung cancer cells (MTT); type: cell-based; settings: Homo sapiens, NCI-H460, 120 h, 5 days, read-out: IC50 μM, NCI-H460 Lung (NSCLC)
[2] = test system: A7r5 rat aortic smooth muscle cells; test: Proliferation of A7r5 rat aortic smooth muscle cells; type: cell-based; settings: A7R5, 72 h, three days, read-out: IC50, inhibition of proliferation in A7r5 cells
Experimental: The effect of test compounds on human umbilical vein smooth muscle cells (HUVSMC), was examined. Cells, tissue explants from a neonate (HRI—passage 2), were seeded into 96 well plates at 1×10^3 cells per well, and allowed to attach for 24 hours. They were then washed twice and incubated in medium without foetal calf serum (FCS) for 24-48 hours to serum-starve them. Test compounds were prepared in medium without FCS and added to the plates and incubated for one hour. Medium with FCS was added to give a final concentration of 10% and the plates incubated for 4-5 days until the controls were just confluent.
The effect of test compounds on rat aortic smooth muscle cell line (A7r5) and another cell line from the media of rat aorta (A10) was examined. The methodology was the same as for HUVSMC, except that the cells were treated with compound for three days.

unstimulated lymphocytes = test: Unstimulated lymphocytes, viable cell number (MTT); type: cell-based, Skh-1:HR 1 (hairless) mice; settings: 10 μM; absence of mitogenic stimulation
Experimental: Male Skh-1:HR 1 (hairless) mice, approximately six weeks old were killed by cervical dislocation. Single cell suspensions were made from the spleen and erythrocytes were lysed in buffer (0.14 M NH4Cl, 17 mM Tris, pH 7.2). The remaining splenocytes were cultured in RPMI-1640 (Gibco) supplemented with 10% (v:v) FBS, 200 mM L-glutamine, penicillin/streptomycin and […] 2-mercaptoethanol. Splenocytes were added to quadruplicate wells containing either concanavalin A (ConA, Sigma-Aldrich—0.4 μg/well), LPS (Sigma-Aldrich—1 μg/well) or no mitogen, as well 10 μM of test compound in DMSO. Samples were analysed after 3 days incubation at 37° C. in 5% CO2 in air. Methylthiazoletetrazolium (MTT) is bioreduced by viable cells into a coloured formazan product that is soluble in DMSO. Thus the quantity of formazan product is directly proportional to the number of living cells in culture, and can be measured using a spectrophotometer at 570 nm. MTT was added to each well, incubated for a further 4 hrs and then colour developed with 0.04 N HCl in isopropanol. Culture supernatants were stored after collection at −80° C. and analysed by ELISA (BD Biosciences) for IFN-γ (a Th-1 cytokine) and for T cells alone, IL-6 (a Th-2 cytokine).

AA-induced ear oedema = test: Arachidonic acid (AA)-induced ear swelling in mice; type: in vivo, BALB/c mice; settings: 25 mg/kg i/p; 1 h post-AA application
Experimental: as §1

IC50 (HT29)	IC50 (NCI-H460)	SMILES	% Change compared with vehicle (PMA-induced ear oedema)	Change in ear thickness (mean ± SD, × 0.01 mm) (PMA-induced ear oedema)	TXA2 ([1]; test compound 1 μM)	TXA2 ([1]; test compound 10 μM)	TXA2 (pg) [1]	IC50 [2]	reduction of viable cell numbers (unstimulated lymphocytes)	% Change compared with vehicle (AA-induced ear oedema)	Change in ear thickness (mean ± SD, × 0.01 mm) (AA-induced ear oedema)	effect on TXA2 synthesis ([1]; 100 μM)
20.6 ± 2.1 µM	4.61 µM	Oc1ccc(C2=Cc3cc4c(cc3OC2)OCN(Cc2ccccc2)C4)cc1 [Compound 1, 4-(3-Benzyl-2,3,4,8-tetrahydrochromeno[6,7-e][1,3]oxazin-7-yl)phenol]	−9%	28.9 ± 3.1 × 0.01 mm	48.720 ± 2.927 pg	17.421 ± 5.747 pg	6.397 ± 0.557^a pg	23 µM	approximately 50%	−18%	20 ± 0.9 × 0.01 mm	
11.8 ± 0.7 µM	8.77 ± 3.7 µM	CC(c1ccccc1)N1COc2cc3c(cc2C1)C=C(c1ccc(O)cc1)CO3 (centres unmarked) [Compound 2, 4-(3-(1-Phenylethyl)-2,3,4,8-tetrahydrochromeno[6,7-e][1,3]oxazin-7-yl)phenol]	−3%	30.9 ± 2.2 × 0.01 mm	30.680 ± 2.708 pg	21.298 ± 0.914 pg	2.313 ± 0.113^a pg		approximately 50%	−39%	15.9 ± 4.2 × 0.01 mm	inhibit TXA2 synthesis
		Oc1cccc(C2=Cc3ccc(O)cc3OC2)c1 [Compound 37-DHE, 3′,7-dihydroxy-isoflav-3-ene, reference compound]						45 µM				
